# Data: ChEMBL document CHEMBL6114951, “Discovery of 3-amide-pyrimidine-based derivatives as potential fms-like tyrosine receptor kinase 3 (FLT3) inhibitors for treating acute myelogenous leukemia” (Bioorg Med Chem Lett, 2025)
# pIC50: −log10 of the molar value. Active and inactive are the calls of the source. The rule behind the calls is not given here.
# What was measured:
# [1] = system: MV4-11; test: cells; conditions: Homo sapiens
# Description: Antiproliferative activity against human MV4-11 cells by CCK-8 assay
# [2] = system: A549; test: cells; conditions: Homo sapiens
# Description: Antiproliferative activity against human A549 cells by CCK-8 assay
# [3] = system: HCT-116; test: cells; conditions: Homo sapiens
# Description: Antiproliferative activity against human HCT-116 cells by CCK-8 assay
# [4] = system: MV4-11; test: Cell cycle arrest in human MV4-11 cells assessed as accumulation at G1-phase at 0.2 uM measured after 24 hrs by propidium iodide staining based flow cytometry (reference value: 70.31%); type: functional
# [5] = system: MV4-11; test: Cell cycle arrest in human MV4-11 cells assessed as accumulation at G2-phase at 0.2 uM measured after 24 hrs by propidium iodide staining based flow cytometry (reference value: 8.87%); type: functional
# [6] = system: MV4-11; test: Cell cycle arrest in human MV4-11 cells assessed as accumulation at S-phase at 0.2 uM measured after 24 hrs by propidium iodide staining based flow cytometry (reference value: 20.83%); type: functional
# [7] = system: MV4-11; test: Induction of apoptosis in human MV4-11 cells assessed as viable cells at 0.2 uM measured after 24 hrs by Annexin V-FITC/propidium iodide staining based flow cytometry (reference value: 92.7%); type: functional; conditions: read-out: Activity
# [8] = system: MV4-11; test: Induction of apoptosis in human MV4-11 cells assessed as early apoptotic cells at 0.2 uM measured after 24 hrs by Annexin V-FITC/propidium iodide staining based flow cytometry (reference value: 5.2%); type: functional
# [9] = system: MV4-11; test: Induction of apoptosis in human MV4-11 cells assessed as late apoptotic cells at 0.2 uM measured after 24 hrs by Annexin V-FITC/propidium iodide staining based flow cytometry (reference value: 2%); type: functional
# [10] = system: MV4-11; test: Induction of apoptosis in human MV4-11 cells assessed as necrotic cells at 0.2 uM measured after 24 hrs by Annexin V-FITC/propidium iodide staining based flow cytometry (reference value: 0.2%); type: functional
# [11] = system: MV4-11; test: Induction of mitochondrial membrane potential loss in human MV4-11 cells assessed as cells with high MMP (aggregates) at 0.2 uM measured after 24 hrs by JC-1 staining based flow cytometry (reference value: 97%); type: functional
# [12] = system: MV4-11; test: Induction of mitochondrial membrane potential loss in human MV4-11 cells assessed as cells with low MMP (monomers) at 0.2 uM measured after 24 hrs by JC-1 staining based flow cytometry (reference value: 2.9%); type: functional
# [13] = Effect on total FLT3 expression in human MV4-11 cells at 0.2 uM measured after 24 hrs by Western blot analysis; type: toxicity, cell-based; conditions: mv4-11, 24 h
# [14] = Effect on total STAT5 expression in human MV4-11 cells at 0.2 uM measured after 24 hrs by Western blot analysis; type: toxicity, cell-based; conditions: mv4-11, 24 h
# [15] = Effect on total ERK expression in human MV4-11 cells at 0.2 uM measured after 24 hrs by Western blot analysis; type: toxicity, cell-based; conditions: mv4-11, 24 h
# [16] = Effect on total AKT expression in human MV4-11 cells at 0.2 uM measured after 24 hrs by Western blot analysis; type: toxicity, cell-based; conditions: mv4-11, 24 h
# [17] = molecular target: Mast/stem cell growth factor receptor Kit (Homo sapiens, UniProt P10721)
# [18] = in vitro; conditions: human, HEK293T cells
# Description: Cytotoxicity against HEK293T cells by CCK-8 assay
# [19] = system: MV4-11; test: Cell cycle arrest in human MV4-11 cells assessed as increase in accumulation at G0/G1-phase measured after 24 hrs by propidium iodide staining based flow cytometry; type: functional; conditions: dose 0.2-10 µM
# [20] = molecular target: c-Kit (Homo sapiens, UniProt P10721); test: Inhibition of c-Kit (unknown origin) at 100 uM relative to control; type: toxicity
# [21] = system: MV4-11; test: Cell cycle arrest in human MV4-11 cells assessed as accumulation at G1-phase at 2 uM measured after 24 hrs by propidium iodide staining based flow cytometry (reference value: 70.31%); type: functional
# [22] = system: MV4-11; test: Cell cycle arrest in human MV4-11 cells assessed as accumulation at G2-phase at 2 uM measured after 24 hrs by propidium iodide staining based flow cytometry (reference value: 8.87%); type: functional
# [23] = system: MV4-11; test: Cell cycle arrest in human MV4-11 cells assessed as accumulation at S-phase at 2 uM measured after 24 hrs by propidium iodide staining based flow cytometry (reference value: 20.83%); type: functional
# [24] = system: MV4-11; test: Cell cycle arrest in human MV4-11 cells assessed as accumulation at G1-phase at 10 uM measured after 24 hrs by propidium iodide staining based flow cytometry (reference value: 70.31%); type: functional
# [25] = system: MV4-11; test: Cell cycle arrest in human MV4-11 cells assessed as accumulation at G2-phase at 10 uM measured after 24 hrs by propidium iodide staining based flow cytometry (reference value: 8.87%); type: functional
# [26] = system: MV4-11; test: Cell cycle arrest in human MV4-11 cells assessed as accumulation at S-phase at 10 uM measured after 24 hrs by propidium iodide staining based flow cytometry (reference value: 20.83%); type: functional
# [27] = system: MV4-11; test: Induction of morphological changes in human MV4-11 cells assessed as cell wrinkling; type: functional, cell-based
# [28] = system: MV4-11; test: Induction of morphological changes in human MV4-11 cells assessed as cell fragmentation; type: functional, cell-based
# [29] = system: MV4-11; test: Induction of apoptosis in human MV4-11 cells measured after 24 hrs by Annexin V-FITC/propidium iodide staining based flow cytometry; type: functional, cell-based; conditions: dose 0.2-5 µM
# [30] = system: MV4-11; test: Induction of apoptosis in human MV4-11 cells assessed as viable cells at 2 uM measured after 24 hrs by Annexin V-FITC/propidium iodide staining based flow cytometry (reference value: 92.7%); type: functional; conditions: read-out: Activity
# [31] = system: MV4-11; test: Induction of apoptosis in human MV4-11 cells assessed as viable cells at 5 uM measured after 24 hrs by Annexin V-FITC/propidium iodide staining based flow cytometry (reference value: 92.7%); type: functional; conditions: read-out: Activity
# [32] = system: MV4-11; test: Induction of apoptosis in human MV4-11 cells assessed as early apoptotic cells at 2 uM measured after 24 hrs by Annexin V-FITC/propidium iodide staining based flow cytometry (reference value: 5.2%); type: functional
# [33] = system: MV4-11; test: Induction of apoptosis in human MV4-11 cells assessed as late apoptotic cells at 2 uM measured after 24 hrs by Annexin V-FITC/propidium iodide staining based flow cytometry (reference value: 2%); type: functional
# [34] = system: MV4-11; test: Induction of apoptosis in human MV4-11 cells assessed as necrotic cells at 2 uM measured after 24 hrs by Annexin V-FITC/propidium iodide staining based flow cytometry (reference value: 0.2%); type: functional
# [35] = system: MV4-11; test: Induction of apoptosis in human MV4-11 cells assessed as early apoptotic cells at 5 uM measured after 24 hrs by Annexin V-FITC/propidium iodide staining based flow cytometry (reference value: 5.2%); type: functional
# [36] = system: MV4-11; test: Induction of apoptosis in human MV4-11 cells assessed as late apoptotic cells at 5 uM measured after 24 hrs by Annexin V-FITC/propidium iodide staining based flow cytometry (reference value: 2%); type: functional
# [37] = system: MV4-11; test: Induction of apoptosis in human MV4-11 cells assessed as necrotic cells at 5 uM measured after 24 hrs by Annexin V-FITC/propidium iodide staining based flow cytometry (reference value: 0.2%); type: functional
# [38] = system: MV4-11; test: Induction of mitochondrial membrane potential loss in human MV4-11 cells measured after 24 hrs by JC-1 staining based flow cytometry; type: functional, cell-based; conditions: dose 0.2-10 µM
# [39] = system: MV4-11; test: Induction of mitochondrial membrane potential loss in human MV4-11 cells assessed as cells with high MMP (aggregates) at 2 uM measured after 24 hrs by JC-1 staining based flow cytometry (reference value: 97%); type: functional
# [40] = system: MV4-11; test: Induction of mitochondrial membrane potential loss in human MV4-11 cells assessed as cells with low MMP (monomers) at 2 uM measured after 24 hrs by JC-1 staining based flow cytometry (reference value: 2.9%); type: functional
# [41] = system: MV4-11; test: Induction of mitochondrial membrane potential loss in human MV4-11 cells assessed as cells with high MMP (aggregates) at 10 uM measured after 24 hrs by JC-1 staining based flow cytometry (reference value: 97%); type: functional
# [42] = system: MV4-11; test: Induction of mitochondrial membrane potential loss in human MV4-11 cells assessed as cells with low MMP (monomers) at 10 uM measured after 24 hrs by JC-1 staining based flow cytometry (reference value: 2.9%); type: functional
# Chain of Mast/stem cell growth factor receptor Kit (P10721 whole entry): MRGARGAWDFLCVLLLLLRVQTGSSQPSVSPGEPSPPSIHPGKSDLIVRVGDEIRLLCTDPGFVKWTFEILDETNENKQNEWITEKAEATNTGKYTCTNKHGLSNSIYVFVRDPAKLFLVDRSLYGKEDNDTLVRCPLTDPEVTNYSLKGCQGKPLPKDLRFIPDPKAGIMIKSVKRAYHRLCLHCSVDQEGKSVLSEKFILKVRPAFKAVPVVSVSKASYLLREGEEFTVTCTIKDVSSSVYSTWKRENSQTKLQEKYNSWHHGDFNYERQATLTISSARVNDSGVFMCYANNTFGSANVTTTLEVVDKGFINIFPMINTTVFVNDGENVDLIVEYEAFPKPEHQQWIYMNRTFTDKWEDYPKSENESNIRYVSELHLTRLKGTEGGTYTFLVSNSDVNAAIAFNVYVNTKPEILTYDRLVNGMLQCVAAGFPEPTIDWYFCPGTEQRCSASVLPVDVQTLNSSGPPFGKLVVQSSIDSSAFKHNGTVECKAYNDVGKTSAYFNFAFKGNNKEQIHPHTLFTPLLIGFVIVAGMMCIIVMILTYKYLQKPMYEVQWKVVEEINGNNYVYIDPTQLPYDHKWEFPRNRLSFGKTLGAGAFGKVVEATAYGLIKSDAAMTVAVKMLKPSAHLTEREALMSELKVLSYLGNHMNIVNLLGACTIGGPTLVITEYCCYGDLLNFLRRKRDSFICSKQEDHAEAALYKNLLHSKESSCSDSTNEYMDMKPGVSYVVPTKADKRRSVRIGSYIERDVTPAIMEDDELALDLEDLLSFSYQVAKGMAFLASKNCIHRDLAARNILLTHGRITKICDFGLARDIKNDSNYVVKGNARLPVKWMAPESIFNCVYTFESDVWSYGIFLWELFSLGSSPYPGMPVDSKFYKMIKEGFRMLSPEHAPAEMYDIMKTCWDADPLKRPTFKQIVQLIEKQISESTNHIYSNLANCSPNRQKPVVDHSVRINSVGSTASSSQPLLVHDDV
# Chain of c-Kit (P10721 whole entry): as above
compound,measurement,setting,value
N#Cc1cnc(N2CCCC2)nc1Nc1ccc(Oc2ccccc2)cc1,pIC50,[1],4.51
same,pIC50,[2],< 4.30
same,pIC50,[3],< 4.30
Cc1nc(NC2CCN(C)CC2)nc(Nc2ccc(Oc3ccccc3)cc2)c1C(=O)O,pIC50,[1],< 4.30
same,pIC50,[2],< 4.30
same,pIC50,[3],< 4.30
CN1CCC(Nc2nc(Nc3ccc(Oc4ccccc4)cc3)c3c(=O)[nH]cc(Br)c3n2)CC1 [DENFIVONTINIB],Activity,[4],89.36%
same,Activity,[5],4.11%
same,Activity,[6],6.52%
same,viability at 0.2 µM,[7],15.8%
same,Activity,[8],49.6%
same,Activity,[9],33.9%
same,Activity,[10],0.7%
same,Activity,[11],85.1%
same,Activity,[12],14.6%
same,Activity,[13],Non-toxic
same,Activity,[14],Non-toxic
same,Activity,[15],Non-toxic
same,Activity,[16],Non-toxic
same,pIC50,[17],8.42
same,pIC50,[1],8.52
same,pIC50,[2],6.85
same,pIC50,[3],5.50
same,pIC50,[18],5.01
CN1CCC(N(C)c2ncc(C(N)=O)c(Nc3ccc(Oc4ccccc4)cc3)n2)CC1,pIC50,[1],6.18
same,pIC50,[2],5.12
same,pIC50,[3],5.41
NC(=O)c1cnc(NC2CCCC2)nc1Nc1ccc(Oc2ccccc2)cc1,pIC50,[1],5.11
same,pIC50,[2],4.70
same,pIC50,[3],4.63
CN1CCC(Nc2nc(Nc3ccc(Oc4ccccc4)cc3)c3ccccc3n2)CC1,pIC50,[1],5.29
same,pIC50,[2],5.39
same,pIC50,[3],5.07
CCOC(=O)c1c(C)nc(NC2CCN(C)CC2)nc1Nc1ccc(Oc2ccccc2)cc1,pIC50,[1],5.27
same,pIC50,[2],5.10
same,pIC50,[3],5.87
CN1CCC(Nc2ncc(C(N)=O)c(Nc3ccc(Oc4ccccc4)cc3)n2)CC1,pIC50,[1],5.68
same,pIC50,[2],5.54
same,pIC50,[3],5.72
CN1CCC(N(C)c2ncc(C#N)c(Nc3ccc(Oc4ccccc4)cc3)n2)CC1,pIC50,[1],5.68
same,pIC50,[2],4.90
same,pIC50,[3],5.22
CC(=O)N1CCC(Nc2nc(Nc3ccc(Oc4ccccc4)cc3)c3ccccc3n2)CC1,pIC50,[1],5.16
same,pIC50,[2],5.01
same,pIC50,[3],4.62
NC(=O)c1cnc(N2CCCC2)nc1Nc1ccc(Oc2ccccc2)cc1,pIC50,[1],4.45
same,pIC50,[2],4.98
same,pIC50,[3],< 4.30
CC(C)N1CCC(Nc2ncc(C#N)c(Nc3ccc(Oc4ccccc4)cc3)n2)CC1,pIC50,[1],5.14
same,pIC50,[2],< 4.30
same,pIC50,[3],< 4.30
CN1CCC(Nc2ncc(C#N)c(Nc3ccc(Oc4ccccc4)cc3)n2)CC1,pIC50,[1],4.90
same,pIC50,[2],< 4.30
same,pIC50,[3],5.05
N#Cc1cnc(NC2CCCC2)nc1Nc1ccc(Oc2ccccc2)cc1,pIC50,[1],4.45
same,pIC50,[2],< 4.30
same,pIC50,[3],< 4.30
CC(C)N1CCC(Nc2ncc(C(N)=O)c(Nc3ccc(Oc4ccccc4)cc3)n2)CC1,Activity,[19],Dose-dependent-effect
same,inhibition at 100 µM,[20],17.5%
same,Activity,[4],75.47%
same,Activity,[5],4.45%
same,Activity,[6],20.08%
same,Activity,[21],82.96%
same,Activity,[22],5.41%
same,Activity,[23],11.9%
same,Activity,[24],89.91%
same,Activity,[25],5.7%
same,Activity,[26],4.39%
same,Activity,[27],Active
same,Activity,[28],Active
same,Activity,[29],Dose-dependent-effect
same,viability at 0.2 µM,[7],78.5%
same,Activity,[8],15.1%
same,Activity,[9],6%
same,Activity,[10],0.3%
same,viability at 2 µM,[30],32.8%
same,viability at 5 µM,[31],11.7%
same,Activity,[32],50.5%
same,Activity,[33],16.4%
same,Activity,[34],0.3%
same,Activity,[35],51.7%
same,Activity,[36],35.8%
same,Activity,[37],0.8%
same,Activity,[38],Dose-dependent-effect
same,Activity,[11],96.2%
same,Activity,[12],3.8%
same,Activity,[39],94.9%
same,Activity,[40],5%
same,Activity,[41],86.6%
same,Activity,[42],13.1%
same,pIC50,[17],< 4.00
same,pIC50,[1],6.23
same,pIC50,[2],5.11
same,pIC50,[3],5.50
same,pIC50,[18],4.40
CCNC(=O)c1c(C)nc(NC2CCN(C)CC2)nc1Nc1ccc(Oc2ccccc2)cc1,pIC50,[1],5.30
same,pIC50,[2],4.70
same,pIC50,[3],4.63
